Measured values reported in PubChem BioAssay (NCI).
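Growth conditions: 96-well plates. Treatment: test compound, 48 hours, 5 concentrations. Analysis: linear interpolation between bracketing concentrations; unreached endpoints set to highest concentration. At the GI50, growth is halved. The concentration for full growth arrest is given as TGI.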

Tests used:
Assay in all cases: inhibition of tumour cell growth, NCI panel, 48 h
OVCAR-4 ovarian = system: OVCAR-4 ovarian
SK-MEL-2 melanoma = system: SK-MEL-2 melanoma
A549 NSCLC = system: A549 NSCLC
UACC-257 melanoma = system: UACC-257 melanoma
NCI-H226 lung = system: NCI-H226 lung
SNB-75 CNS = system: SNB-75 CNS
MOLT-4 leukemia = system: MOLT-4 leukemia
HCT-116 colon = system: HCT-116 colon
PC-3 prostate = system: PC-3 prostate
HT29 colon = system: HT29 colon

CC/C(Cl)=N\OC(=O)Nc1ccc(F)c([N+](=O)[O-])c1
TGI (OVCAR-4 ovarian): 14.7 µM
TGI (SK-MEL-2 melanoma): 32 µM
TGI (A549 NSCLC): 43.4 µM
TGI (UACC-257 melanoma): 35.1 µM
TGI (NCI-H226 lung): > 100 µM
TGI (SNB-75 CNS): 38.9 µM
TGI (MOLT-4 leukemia): > 36.3 µM
TGI (HCT-116 colon): 30.6 µM
TGI (PC-3 prostate): 32.4 µM
TGI (HT29 colon): > 57.8 µM

O=C1CCCc2cc3c(cc21)CC1(C3)Cc2ccc3c(c2C1)C(=O)CCC3 (configuration not stated)
TGI (OVCAR-4 ovarian): > 100 µM
TGI (SK-MEL-2 melanoma): 88.9 µM
TGI (A549 NSCLC): > 100 µM
TGI (UACC-257 melanoma): 26.5 µM
TGI (NCI-H226 lung): 90.1 µM
TGI (SNB-75 CNS): 80.4 µM
TGI (MOLT-4 leukemia): 22.7 µM
TGI (HCT-116 colon): > 100 µM
TGI (PC-3 prostate): > 100 µM
TGI (HT29 colon): > 100 µM

COc1ccc(N=NC(=Nc2ccc(F)cc2)c2ccc(N(CCC#N)CCC#N)cc2)cc1
TGI (OVCAR-4 ovarian): > 100 µM
TGI (A549 NSCLC): 43.1 µM
TGI (UACC-257 melanoma): 70.4 µM
TGI (NCI-H226 lung): > 100 µM
TGI (SNB-75 CNS): 84.1 µM
TGI (MOLT-4 leukemia): > 100 µM
TGI (HCT-116 colon): > 100 µM
TGI (PC-3 prostate): 58.9 µM
TGI (HT29 colon): > 100 µM

CCOC(=O)C1(C(=O)OCC)CCCN1C(=O)[C@H](CNC(=O)OC(C)(C)C)NC(=O)OCc1ccccc1
TGI (OVCAR-4 ovarian): > 100 µM
TGI (SK-MEL-2 melanoma): > 100 µM
TGI (A549 NSCLC): > 100 µM
TGI (UACC-257 melanoma): > 100 µM
TGI (NCI-H226 lung): > 100 µM
TGI (SNB-75 CNS): > 100 µM
TGI (MOLT-4 leukemia): > 100 µM
TGI (HCT-116 colon): > 100 µM
TGI (PC-3 prostate): > 100 µM
TGI (HT29 colon): > 100 µM

O=C1c2cccc(NCCNCCO)c2C(=O)c2cccc(NCCNCCO)c21
TGI (OVCAR-4 ovarian): 2.49 µM
TGI (SK-MEL-2 melanoma): 2.77 µM
TGI (A549 NSCLC): 7.78 µM
TGI (UACC-257 melanoma): 9.4 µM
TGI (NCI-H226 lung): 3.51 µM
TGI (SNB-75 CNS): 3.03 µM
TGI (MOLT-4 leukemia): 6.3 µM
TGI (HCT-116 colon): 4.77 µM
TGI (PC-3 prostate): 3.02 µM
TGI (HT29 colon): 3.54 µM

O=[N+]([O-])c1ccc(C2=Nc3ccccc3SC(c3ccccc3)C2)cc1 (configuration not stated)
TGI (OVCAR-4 ovarian): 27.3 µM
TGI (SK-MEL-2 melanoma): 33.2 µM
TGI (A549 NSCLC): 51.2 µM
TGI (UACC-257 melanoma): 51.6 µM
TGI (NCI-H226 lung): 54 µM
TGI (SNB-75 CNS): 37.1 µM
TGI (MOLT-4 leukemia): > 100 µM
TGI (HCT-116 colon): 24.2 µM

CN1COCc2cc3cc4c(cc3nc21)OCCO4
TGI (OVCAR-4 ovarian): > 100 µM
TGI (SK-MEL-2 melanoma): > 100 µM
TGI (A549 NSCLC): > 100 µM
TGI (UACC-257 melanoma): > 100 µM
TGI (NCI-H226 lung): > 100 µM
TGI (SNB-75 CNS): > 100 µM
TGI (MOLT-4 leukemia): > 100 µM
TGI (HCT-116 colon): > 100 µM
TGI (PC-3 prostate): > 100 µM
TGI (HT29 colon): > 100 µM

COc1cc(CC(C)N)ccc1O (configuration not stated)
TGI (OVCAR-4 ovarian): > 100 µM
TGI (SK-MEL-2 melanoma): > 100 µM
TGI (A549 NSCLC): > 100 µM
TGI (UACC-257 melanoma): > 100 µM
TGI (NCI-H226 lung): > 100 µM
TGI (SNB-75 CNS): > 100 µM
TGI (MOLT-4 leukemia): > 100 µM
TGI (HCT-116 colon): > 100 µM
TGI (PC-3 prostate): > 100 µM
TGI (HT29 colon): > 100 µM

COC(=O)c1cc2c(cc1CC(Cc1ccc3c(c1)CCC3)C(=O)OC)CCC2 (configuration not stated)
TGI (OVCAR-4 ovarian): 81.8 µM
TGI (SK-MEL-2 melanoma): > 100 µM
TGI (A549 NSCLC): > 100 µM
TGI (UACC-257 melanoma): 81.3 µM
TGI (NCI-H226 lung): > 100 µM
TGI (SNB-75 CNS): > 100 µM
TGI (MOLT-4 leukemia): > 100 µM
TGI (HCT-116 colon): > 100 µM
TGI (PC-3 prostate): > 100 µM
TGI (HT29 colon): > 100 µM

O=C(Nc1ccc(-n2cc(-c3ccncc3)c(-c3ccc(O)c(Cl)c3)n2)cc1)Nc1cccc(Cl)c1Cl
GI50 (OVCAR-4 ovarian): 5.47 µM
TGI (OVCAR-4 ovarian): > 32.5 µM
GI50 (SK-MEL-2 melanoma): 7.18 µM
TGI (SK-MEL-2 melanoma): > 32.5 µM
GI50 (A549 NSCLC): 9.11 µM
TGI (A549 NSCLC): > 32.5 µM
GI50 (UACC-257 melanoma): 18.6 µM
TGI (UACC-257 melanoma): > 32.5 µM
GI50 (NCI-H226 lung): > 32.5 µM
TGI (NCI-H226 lung): > 32.5 µM
GI50 (SNB-75 CNS): 5.51 µM
TGI (SNB-75 CNS): > 32.5 µM
GI50 (MOLT-4 leukemia): 3.7 µM
TGI (MOLT-4 leukemia): > 32.5 µM
GI50 (HCT-116 colon): 3.26 µM
TGI (HCT-116 colon): 21.6 µM
GI50 (PC-3 prostate): 1.73 µM
TGI (PC-3 prostate): 14.3 µM
GI50 (HT29 colon): 3.87 µM
TGI (HT29 colon): 10.4 µM

CCCOC(=O)NC(C)C(=O)NC(CCC(=O)NC(CCCC(N)C(=O)O)C(=O)NC(C)C(=O)O)C(=O)O (configuration not stated)
TGI (OVCAR-4 ovarian): 70.6 µM
TGI (SK-MEL-2 melanoma): > 100 µM
TGI (A549 NSCLC): > 100 µM
TGI (MOLT-4 leukemia): 41.9 µM
TGI (HCT-116 colon): > 100 µM
TGI (PC-3 prostate): 53.7 µM
TGI (HT29 colon): 38.4 µM

COc1ccc(/C=N/N2C(=O)c3c(N)c(C#N)c(-c4ccccc4)c(-c4ccccc4)c3C2=O)cc1
TGI (OVCAR-4 ovarian): > 100 µM
TGI (SK-MEL-2 melanoma): > 100 µM
TGI (A549 NSCLC): > 100 µM
TGI (UACC-257 melanoma): > 100 µM
TGI (NCI-H226 lung): > 100 µM
TGI (SNB-75 CNS): > 100 µM
TGI (MOLT-4 leukemia): > 100 µM
TGI (HCT-116 colon): > 100 µM
TGI (PC-3 prostate): > 100 µM

O=C(O)c1ccc2c(c1)CC1(C2)Cc2cc3c(cc2C1=O)CCC3 (configuration not stated)
TGI (OVCAR-4 ovarian): > 100 µM
TGI (SK-MEL-2 melanoma): > 100 µM
TGI (A549 NSCLC): > 100 µM
TGI (UACC-257 melanoma): > 100 µM
TGI (NCI-H226 lung): > 100 µM
TGI (SNB-75 CNS): > 100 µM
TGI (MOLT-4 leukemia): > 100 µM
TGI (HCT-116 colon): > 100 µM
TGI (PC-3 prostate): > 100 µM
TGI (HT29 colon): > 100 µM

CCOC(=O)C1CN(C2CC2)CCC1=O (configuration not stated)
TGI (OVCAR-4 ovarian): > 100 µM
TGI (SK-MEL-2 melanoma): > 100 µM
TGI (A549 NSCLC): > 100 µM
TGI (UACC-257 melanoma): > 100 µM
TGI (NCI-H226 lung): > 100 µM
TGI (SNB-75 CNS): > 100 µM
TGI (MOLT-4 leukemia): > 100 µM
TGI (HCT-116 colon): > 100 µM
TGI (PC-3 prostate): > 100 µM
TGI (HT29 colon): > 100 µM

CC12CC1C(c1cccc([N+](=O)[O-])c1)(c1cccc([N+](=O)[O-])c1)N=N2 (configuration not stated)
TGI (OVCAR-4 ovarian): 80.3 µM
TGI (SK-MEL-2 melanoma): > 100 µM
TGI (A549 NSCLC): > 100 µM
TGI (UACC-257 melanoma): > 100 µM
TGI (NCI-H226 lung): > 100 µM
TGI (SNB-75 CNS): > 100 µM
TGI (MOLT-4 leukemia): > 100 µM
TGI (HCT-116 colon): 33.8 µM
TGI (PC-3 prostate): 88.8 µM
TGI (HT29 colon): > 100 µM

CCc1nc2cc3cccnc3c(Cl)c2[nH]c1=O
TGI (OVCAR-4 ovarian): > 100 µM
TGI (SK-MEL-2 melanoma): > 100 µM
TGI (A549 NSCLC): > 100 µM
TGI (UACC-257 melanoma): > 100 µM
TGI (NCI-H226 lung): > 100 µM
TGI (SNB-75 CNS): 50.4 µM
TGI (MOLT-4 leukemia): > 100 µM
TGI (HCT-116 colon): > 100 µM
TGI (PC-3 prostate): > 100 µM
TGI (HT29 colon): > 100 µM

Cc1ccc(S(=O)(=O)NC(=O)NNc2ccc(F)cc2)cc1
TGI (OVCAR-4 ovarian): > 100 µM
TGI (SK-MEL-2 melanoma): > 100 µM
TGI (A549 NSCLC): > 100 µM
TGI (UACC-257 melanoma): > 100 µM
TGI (NCI-H226 lung): > 100 µM
TGI (SNB-75 CNS): > 75.8 µM
TGI (MOLT-4 leukemia): > 100 µM
TGI (HCT-116 colon): > 100 µM
TGI (PC-3 prostate): > 100 µM
TGI (HT29 colon): > 100 µM

COc1ccc(N=Nc2c3c(c(O)c4ccccc24)CCC(C)(C)O3)cc1
TGI (OVCAR-4 ovarian): 50.4 µM
TGI (SK-MEL-2 melanoma): 40.3 µM
TGI (A549 NSCLC): 39 µM
TGI (UACC-257 melanoma): 37.5 µM
TGI (NCI-H226 lung): > 100 µM
TGI (SNB-75 CNS): 52.9 µM
TGI (MOLT-4 leukemia): > 100 µM
TGI (HCT-116 colon): 28.9 µM
TGI (PC-3 prostate): 87 µM
TGI (HT29 colon): 27.6 µM

COc1cc2c(c(O)c1O)-c1ccc(OC)c(=O)cc1C(NC(C)=O)CC2 (configuration not stated)
TGI (OVCAR-4 ovarian): > 84.2 µM
TGI (SK-MEL-2 melanoma): 16.5 µM
TGI (A549 NSCLC): > 100 µM
TGI (UACC-257 melanoma): > 100 µM
TGI (NCI-H226 lung): 92.7 µM
TGI (SNB-75 CNS): 16.6 µM
TGI (MOLT-4 leukemia): > 64.3 µM
TGI (HCT-116 colon): > 62.8 µM
TGI (HT29 colon): > 70.3 µM

COC(=O)[C@H](C)NC(=O)[C@H](CSC)N1C(=O)N[C@@H](C(C)C)C1=O
TGI (OVCAR-4 ovarian): > 100 µM
TGI (SK-MEL-2 melanoma): > 100 µM
TGI (A549 NSCLC): > 100 µM
TGI (UACC-257 melanoma): > 100 µM
TGI (NCI-H226 lung): > 100 µM
TGI (SNB-75 CNS): > 100 µM
TGI (MOLT-4 leukemia): > 100 µM
TGI (HCT-116 colon): > 100 µM
TGI (PC-3 prostate): > 100 µM
TGI (HT29 colon): > 100 µM
